Results reported in patent US11547681B2, “N-acylethanolamide derivatives and uses thereof” (ELIEM THERAPEUTICS, INC., priority 2016, dated 2023).
“Also recorded” adds a separate entry of the source.

Key:
[1] = PEA levels in New Zealand White rabbit plasma samples after oral administration; assay type: in vivo; settings: individual rabbits; Group 3, 32 mg/kg/day; total PEA, ~5 h after morning dosing; listed as PEA-prodrug
From the text: The present Example describes PEA levels observed in rabbit plasma samples after oral administration of compound(s) provided herein. Blood samples were taken approximately five hours after the morning dosing.
Plasma samples from the current study were not treated to prolong the post-collection stability of the prodrug. Instead, all samples were allowed to stand, thawed and untreated, at room temperature for four hours prior to extraction and analysis. This strategy allowed for any remaining prodrug in the sample to convert to PEA. All reported concentrations are total PEA in the sample.
Seventy-nine New Zealand White rabbit plasma samples were analyzed with a previously developed LC-MS/MS method for the detection of palmitoylethanolamide (PEA). A total of 79 plasma samples were received for analysis. All samples were received frozen in good condition. Samples were stored at −80° C. until analysis.
An LC-MS/MS method for the determination of PEA in plasma was used to quantify samples in this study. See, e.g., Example 3. Study samples were extracted using the methods described in Examples 3-5.

[2] = Stability of PEA-prodrug in Sprague-Dawley rat plasma and acidified rat plasma (90 minutes, ice or RT); assay type: in vitro ADME; settings: 1 μg/mL
Experimental: The stability of the PEA-prodrug I-9 was assessed in Sprague-Dawley rat plasma containing sodium heparin as the anticoagulant, and in acidified rat plasma containing citric acid and formic acid. The acidified plasma was prepared by collecting Sprague-Dawley rat […] over sodium heparin and adding 100 μL of 0.5 M citric acid per mL of blood. The blood was centrifuged to generate plasma, and then 100 μL of 10% formic acid was added per mL of plasma.
PEA-prodrug was added to each matrix to a final concentration of 1 μg/mL. Triplicate aliquots (50 μL) were immediately collected and added to 150 μL of acetonitrile containing internal standard. The remaining plasma aliquots were split equally. One aliquot was allowed to stand at room temperature while the second was placed on ice. After ninety minutes, triplicate aliquots of each sample were collected and added to acetonitrile. The samples were centrifuged at 13000 rpm for ten minutes, and the resulting supernatant was analyzed using the developed LC-MS/MS method. The peak area response ratios (PARR) of the analyte and internal standard from the incubated samples were then compared to the initial sample to determine the percent PEA prodrug remaining.

[3] = Simulated gastric fluid (SGF) stability, with and without pepsin; assay type: in vitro ADME; settings: pH 1.2, 2 μM
Experimental: Studies were carried out in simulated gastric fluid (SGF). SGF was prepared by dissolving 2.0 g of NaCl and 3.2 g of purified pepsin (derived from porcine stomach mucosa) in 7 mL of 10 N HCl and sufficient water to make 1000 mL. The pH was adjusted to pH 1.2. Control experiments were also run without the addition of pepsin to the matrix. The test article was added into the SGF at 37° C. at a final concentration of 2 μM, and incubated in a shaking water bath at 37° C. Individual tubes were dosed for each time point (0, 15, 30, 60, and 120 minutes). At the appropriate time, 500 μL of ice-cold acetonitrile containing 0.1% formic acid and internal standard was added to a single tube. The starting time of each tube was staggered so that all timepoints finished simultaneously. The samples were then mixed and centrifuged. Calibration standards were prepared in matched matrix. […] Analytical conditions are outlined in Appendix 4-1.

[4] = PEA levels in New Zealand White rabbit plasma samples after oral administration; assay type: in vivo; settings: individual rabbits, predose
[5] = Microsome/S9 fraction control (reaction mixture without microsomal proteins); assay type: in vitro ADME; settings: for Concentration of analyte I-9: dosed I-9 2 μM
Experimental: As a control for the liver microsome and intestinal S9 fraction studies, additional experiments were run in reaction mixture, with the exclusion of microsomal proteins. The reaction mixture was prepared as described below. […] Individual tubes were dosed for each time point (0, 10, 20, 30, and 60 minutes). At the appropriate time, 500 μL of ice-cold acetonitrile containing 0.1% formic acid and internal standard was added to a single tube. The starting time of each tube was staggered so that all timepoints finished simultaneously. […] Calibration standards were prepared in matched matrix. […] Analytical conditions are outlined in Appendix 4-1.

[6] = Simulated gastric fluid (SGF) stability, with and without pepsin; assay type: in vitro ADME; settings: for Concentration of analyte I-9: dosed I-9 2 μM
[7] = system: Sprague Dawley rats, carrageenan-induced thermal hyperalgesia; experiment: Carrageenan-induced inflammatory model, thermal hyperalgesia testing; assay type: in vivo, Sprague Dawley rat
Experimental: Sixty male Sprague Dawley rats were used in this study. Baseline thermal hyperalgesia thresholds were determined on day -1; animals were divided into 6 groups based on baseline thermal hyperalgesia thresholds. On day 0, animals received an oral dose of vehicle or I-16. Approximately 30 minutes after dosing the animals received an intra-plantar injection of 2% carrageenan solution. The animals were assessed for thermal hyperalgesia approximately 4 and approximately 24 hours after carrageenan injection.
Thermal hyperalgesia was assessed at baseline (prior to dosing with either vehicle or I-16), 4 hours, and 24 hours post-carrageenan injection.
Mean±SEM ipsilateral paw withdrawal latencies following carrageenan injection in vehicle and I-16 treated animals during the pharmacological assessment period (day 0).

For CCCCCCCCCCCCCCCC(=O)NCCOC(=O)CCC(=O)OCC(O)CO (stereo not shown) [Compound I-9], the “PEA concentration in plasma, Day 7” value [1] was “BLOQ (below the limit of quantitation (2.5 ng/mL))”, the “% Remaining” value ([2]; acidified rat plasma (citric and formic acid), RT) was 96.0% and the “% Remaining” value ([2]; acidified rat plasma (citric and formic acid), ice) was 107%. For the same compound, the “% Remaining” value ([2]; rat plasma (sodium heparin), RT) was 0.203%, the “% Remaining” value ([2]; rat plasma (sodium heparin), ice) was 73.4% and the “% Remaining of Initial (n = 1)” value ([3]; SGF w/o pepsin, 30 min) was 84%. The “% Remaining of Initial (n = 1)” value ([3]; SGF w/o pepsin, 120 min) was 71%, the “% Remaining of Initial (n = 1)” value ([3]; SGF w/pepsin, 0 min) was 100% and the “% Remaining of Initial (n = 1)” value ([3]; SGF w/pepsin, 15 min) was 95%. The “% Remaining of Initial (n = 1)” value ([3]; SGF w/pepsin, 60 min) was 92%, the half-life at 2 μM ([3]; simulated gastric fluid without pepsin, SGF w/o pepsin) was > 2 h and the “PEA concentration in plasma, Day −3” value ([4]; Group 3, 32 mg/kg/day) was “BLOQ (below the limit of quantitation (2.5 ng/mL))”. The “PEA concentration in plasma, Day −5” value ([4]; Group 3, 32 mg/kg/day) was “BLOQ (below the limit of quantitation (2.5 ng/mL))”, the “PEA concentration in plasma, Day −3” value ([4]; Group 4, 160 mg/kg/day) was “BLOQ (below the limit of quantitation (2.5 ng/mL))” and the “PEA concentration in plasma, Day −5” value ([4]; Group 4, 160 mg/kg/day) was “BLOQ (below the limit of quantitation (2.5 ng/mL))”. For the same compound, the “Concentration of analyte I-9” value ([5]; 0 min) was 2240 nM, the “Concentration of analyte I-9” value ([5]; 10 min) was 1470 nM and the “Concentration of analyte I-9” value ([5]; 20 min) was 1720 nM. For the same compound, the “Concentration of analyte I-9” value ([5]; 30 min) was 1500 nM, the “Concentration of analyte I-9” value ([5]; 60 min) was 1380 nM and the half-life at 2 μM ([5]; microsome/S9 reaction mixture without microsomal proteins, no microsomal proteins, pH 7.4, 2 μM) was > 1 h. The “% Remaining of Initial (n = 1)” value ([5]; no microsomal proteins, pH 7.4, 2 μM, 0 min) was 100%, the “% Remaining of Initial (n = 1)” value ([5]; no microsomal proteins, pH 7.4, 2 μM, 10 min) was 66% and the “% Remaining of Initial (n = 1)” value ([5]; no microsomal proteins, pH 7.4, 2 μM, 20 min) was 77%. The “% Remaining of Initial (n = 1)” value ([5]; no microsomal proteins, pH 7.4, 2 μM, 30 min) was 67%, the “% Remaining of Initial (n = 1)” value ([5]; no microsomal proteins, pH 7.4, 2 μM, 60 min) was 62% and the “% Remaining of Initial (n = 1)” value ([6]; SGF w/o pepsin, pH 1.2, 2 μM, 0 min) was 100%. The “% Remaining of Initial (n = 1)” value ([6]; SGF w/o pepsin, pH 1.2, 2 μM, 15 min) was 93%, the “% Remaining of Initial (n = 1)” value ([6]; SGF w/o pepsin, pH 1.2, 2 μM, 60 min) was 72% and the “% Remaining of Initial (n = 1)” value ([6]; SGF w/pepsin, pH 1.2, 2 μM, 30 min) was 80%. The “% Remaining of Initial (n = 1)” value ([6]; SGF w/pepsin, pH 1.2, 2 μM, 120 min) was 86%, the “Concentration of analyte I-9” value ([6]; Matrix 'Human', 0 min) was 1520 nM and the “Concentration of analyte I-9” value ([6]; Matrix 'Human', head 10 min) was 1450 nM. The “Concentration of analyte I-9” value ([6]; Matrix 'Human', head 20 min) was 1210 nM, the “Concentration of analyte I-9” value ([6]; Matrix 'Human', head 30 min) was 1400 nM and the “Concentration of analyte I-9” value ([6]; Matrix 'Human', head 60 min) was 1310 nM. The “Concentration of analyte I-9” value ([6]; Matrix 'Rat', 0 min) was 2070 nM, the “Concentration of analyte I-9” value ([6]; Matrix 'Rat', head 10 min) was 1930 nM and the “Concentration of analyte I-9” value ([6]; Matrix 'Rat', head 20 min) was 1740 nM. The “Concentration of analyte I-9” value ([6]; Matrix 'Rat', head 30 min) was 1490 nM, the “Concentration of analyte I-9” value ([6]; Matrix 'Rat', head 60 min) was 1480 nM and the half-life at 2 μM ([6]; pig, simulated gastric fluid with pepsin, SGF w/pepsin, pH 1.2, 2 μM) was > 2 h.

In the case of CCCCCCCCCCCCCCCC(=O)NCCOC(=O)CCC(=O)OC(COC(=O)CCC)COC(=O)CCC [Compound I-16], the “effect on thermal hyperalgesia induced by carrageenan” value (“effect … by carrageenan” for short) ([7]; I-16 10.25 mg/kg PO (5 mg/kg equivalents of PEA), any time point (4 and 24 hours)) is reported as “did not significantly reduce; also recorded: no significant effect”, the “effect … by carrageenan” value ([7]; I-16 20.50 mg/kg PO, 4-hour time point, 20.5 mg/kg) is reported as “significantly reduced thermal hyperalgesia; also recorded: significantly reducing thermal hyperalgesia” and the “effect … by carrageenan” value ([7]; I-16 20.50 mg/kg PO, 24-hour time point) is reported as “did not significantly reduce thermal hyperalgesia”. The “overall effect on thermal hyperalgesia” value ([7]; I-16 10.25 and 20.50 mg/kg PO) was “dose- and time-dependent reduction of thermal hyperalgesia”.
